From PMC7391726, “Fatty acid mimetic PBI-4547 restores metabolic homeostasis via GPR84 in mice with non-alcoholic fatty liver disease” (Scientific Reports, 2020)

Columns and labels:
PPARα = biological target: T1, PPARα (Homo sapiens, UniProt Q07869); assay: LanthaScreen TR-FRET competitive binding assay, PPARα LBD; settings: Cheng-Prusoff; read-out: Ki inhibition constant, PPARα LBD
T1 construct: glutathione S-transferase (GST)-tagged human PPAR-LBD; purchased Fisher Scientific
T1 sequence (Q07869 239-466 limits assumed): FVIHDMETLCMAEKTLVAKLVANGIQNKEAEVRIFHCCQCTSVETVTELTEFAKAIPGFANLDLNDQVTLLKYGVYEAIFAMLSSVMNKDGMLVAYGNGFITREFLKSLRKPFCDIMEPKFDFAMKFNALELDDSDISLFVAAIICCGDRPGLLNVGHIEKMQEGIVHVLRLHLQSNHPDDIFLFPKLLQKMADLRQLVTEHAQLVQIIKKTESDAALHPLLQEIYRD
Excerpt: (§1) The peroxisome proliferator-activated receptors (PPARs), PPARα, PPARδ, and PPARγ are ligand-dependent transcription factors regulated by FAs, including MCFAs, which control expression of several key metabolism-associated genes. We thus characterized the binding and transcriptional activity of PBI-4547 to these receptors. A LanthaScreen TR-FRET competitive binding assay was used to determine the binding affinity of PBI-4547 in comparison to the full control agonists GW7647 (PPARα), GW0742 (PPARδ), and rosiglitazone (PPARγ).
(§2) The LanthaScreen time-resolved fluorescence resonance energy transfer (TR-FRET) PPARα, PPARδ and PPARγ competitive binding assay (Fisher Scientific) was performed according to the manufacturer’s protocol. […] The FRET signal was measured using an Infinite M1000 microplate reader by excitation at 332 nm and emission at 520 nm for fluorescein and 490 nm for terbium. Competitive ligand binding to PPAR is detected by a test compound’s ability to displace the Fluormone pan-PPAR Green from the LBD, which results in a decrease of the 520 nm/490 nm TR-FRET ratio. The inhibition constant (Ki) of the competitor ligand was calculated by applying the Cheng-Prusoff equation.

HepG2 hepatocytes = assay: 14C-palmitate β-oxidation rate in HepG2 hepatocytes; format: cell-based
Experimental: Moreover, hepatic expression of several genes involved in glucose metabolism including Pklr (pyruvate kinase L/R), G6pc (glucose-6-phosphatase, catalytic) and Slc2a2 (Glut2) was normalized by PBI-4547 (Fig. 4B). […] To test this hypothesis, mitochondrial respiration in HepG2 hepatocytes was measured (Fig. 4C). […] However, it did decrease maximal respiration and ATP production, in agreement with the metabolomics results.
Figure 4 Effects of PBI-4547 on glucose and FA metabolism in liver. (A) Relative gene expression levels of glucose and FA-related metabolism in liver from STD, HFD and HFD + PBI-4547 mice. Data are presented as geometric mean ± SEM (n ≥ 6 per group, one-way ANOVA with Dunnett’s multicomparison test vs HFD group). (B) 1H-NMR metabolic profiling in liver tissues. (C) Oxygen Consumption Rate (OCR) and Extracellular Acidifcation Rate (ECAR) in HepG2 hepatocytes. Measurements of basal respiration, maximal respiration, ATP production and proton leak in HepG2 hepatocytes treated or not with PBI-4547. (D) Oxidation rate of ^14C-palmitate in HepG2 hepatocytes treated or not with PBI-4547. Data are presented as mean ± SEM (n = 3, Student t test Ctrl vs PBI-4547). See also Fig. S2.

ob/ob mice = assay: ob/ob leptin-deficient genetic mouse model of metabolic syndrome; format: in vivo
Excerpt: We next sought to confirm our above findings obtained from the diet-induced model of obesity by using the ob/ob leptin-deficient genetic mouse model of metabolic syndrome. […] Additionally, the mRNA expression profiles of glucose- and FA-related genes in liver (Fig. S4D,E) and WAT (Fig. S5) also differed between pioglitazone- and PBI-4547-treated mice.

standard diet-fed mice = assay: Standard diet-fed mice; format: in vivo, mouse
Excerpt: The well-established high-fat diet (HFD) mouse model of obesity was used to study the impact of PBI-4547 on the onset and progression of NAFLD. A 14-week HFD regimen led to significant weight gain in both male and female mice. […] Moreover, PBI-4547 decreased serum triglycerides while enhancing adiponectin levels. […] Of note, the effects of PBI-4547 on bodyweight, food consumption, glucose tolerance, fasting blood glucose, insulin resistance and HOMA-β indices were absent in standard diet-fed mice (Table S1).
WT or Gpr84^−/− mice, as previously described, (aged 10–14 weeks at the beginning of the experiment) were either fed a standard diet (STD) or a high-fat diet (HFD) (Envigo #TD.06414) for 14 weeks. At this point, mice were administered either vehicle (water) or PBI-4547 (10 mg/kg) on a daily basis for 6 (WT study) or 8 (WT vs KO study) weeks by gastric gavage, and were sacrificed thereafter. Liver and WAT tissues were fixed in 10% formalin for histological analyses or flash frozen in liquid nitrogen for RT-PCR analyses. All animal studies were reviewed and approved by the animal care and use committee of the Institut National de la Recherche Scientifique – Armand-Frappier (Laval, QC, Canada) and the University of Ottawa’s Animal Care and Veterinary Services (Ottawa, ON, Canada). Protocols were approved and undertaken according to the Canadian Council on Animal Care guidelines.

PPARγ = biological target: T2, PPARγ (Homo sapiens, UniProt P37231); assay: LanthaScreen TR-FRET competitive binding assay, PPARγ LBD; settings: Cheng-Prusoff; read-out: Ki inhibition constant, PPARγ LBD
T2 construct: glutathione S-transferase (GST)-tagged human PPAR-LBD; purchased Fisher Scientific
T2 sequence (P37231 238-503 limits assumed): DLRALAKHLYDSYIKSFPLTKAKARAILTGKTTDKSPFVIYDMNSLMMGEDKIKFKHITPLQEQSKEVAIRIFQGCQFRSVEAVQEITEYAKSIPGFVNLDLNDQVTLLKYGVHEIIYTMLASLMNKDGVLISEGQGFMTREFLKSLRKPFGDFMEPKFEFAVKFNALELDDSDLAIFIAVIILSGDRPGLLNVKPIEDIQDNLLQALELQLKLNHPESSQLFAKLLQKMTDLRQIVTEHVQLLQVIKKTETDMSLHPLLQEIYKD
Excerpt: as §1, §2

Ki (PPARα): 489 nM | Ki (PPARγ): 88 nM
Compound: CCCCCc1cc(CCCCC)cc(CC(=O)[O-])c1.[Na+] [PBI-4547, 2-[3,5-dipentylphenyl]acetate sodium salt]
oxidation of 14C-palmitate (β-oxidation rate) (HepG2 hepatocytes): dose-dependently increased | bodyweight (ob/ob mice): significantly reduced | prevention of clinical manifestations of fatty liver disease (liver histology) (ob/ob mice): more effective than pioglitazone | effects on bodyweight, food consumption, glucose tolerance, fasting blood glucose, insulin resistance and HOMA-β indices (standard diet-fed mice): absent
